{
  "source": "patent US20110027324A1",
  "about": "“O-DESMETHYL-V[…] TREATING MAJOR DEPRESSIVE DISORDER” (Wyeth LLC, priority 2007, published 2011)",
  "key": {"[1]": {"system": "subjects with a primary diagnosis of MDD", "experiment": "MDD Study No. 1: efficacy evaluation, randomized double-blind placebo-controlled 8-week study", "type": "in vivo, human", "method": "This example describes the results of a multicenter, randomized, double-blind, placebo-controlled, parallel-group study that was designed to evaluate the efficacy and safety of 50 and 100 mg/day ODV for treating MDD.\nSubjects were male or female outpatients at least 18 years of age who had depressive symptoms for at least 30 days before the screening visit, and a primary diagnosis of MDD based on the criteria in the Diagnostic and Statistical Manual of Mental Disorders, Fourth edition (DSM-IV), single or recurrent episode, without psychotic features. Minimum screening and baseline scores of 20 on the Hamilton Rating Scale for Depression, 17-item (HAM-D17), of 2 on item 1 (depressed mood) on the HAM-D17, and of 4 on the Clinical Global Impressions Scale-Severity (CGI-S) were also required.\nThe planned enrollment was 480 subjects. A total of 703 subjects were screened for participation; 229 were screen failures and 474 were randomly assigned to treatment: 159 were assigned to receive placebo, 158 were assigned to receive ODV 50 mg/day; and 157 were assigned to receive ODV 100 mg/day. Twenty-three (23) of these 474 subjects were considered “no-data subjects” (randomized to treatment without information as to treatment). […]\nThe primary outcome variable was the HAM-D17 total score. The key secondary outcome variable was the Clinical Global Impressions Scale-Improvement (CGI-D score. Other secondary efficacy variables included the CGI-S, the Montgomery and Asberg Depression Rating Scale (MADRS) score, the HAM-D6 (Bech version: HAM-D17 items 1, 2, 7, 8, 10, and 13) score, the Covi Anxiety Scale total score, the remission rate (percentage of subjects with HAM-D17 scores of ≦7), response rates for the HAM-D17 (50% or greater change from baseline in the HAM-D17 total score), MADRS, and CGI-I, and the visual analog scale for pain intensity (VAS-PI). Self-administered health outcomes assessments were measured by the Sheehan Disability Scale (SDS) and the World Health Organization 5-Item Well-Being Index (WHO-5). […]"}, "[2]": {"system": "subjects with a primary diagnosis of MDD", "experiment": "MDD Study No. 1: safety evaluation (AEs, DESS, laboratory, vital signs, ECG)", "type": "in vivo, human", "conditions": "for subjects with AEs as reason for study discontinuation: double-blind on-therapy period, placebo 3%; for subjects reporting serious or noteworthy AEs: none in placebo; for subjects with AEs of clinical importance: placebo 4", "method": "On study day −1 (baseline), eligible subjects were randomly assigned to 1 of 2 fixed doses of ODV (50 or 100 mg/day) or to placebo for the 8-week double-blind treatment period. A 7-day taper period after the end of double-blind treatment was recommended but may have been omitted, shortened, or lengthened at the discretion of the investigator. Subjects assigned to the ODV 50 mg dose group received their maintenance dose beginning on study day 1 and continued this regimen until study day 56 or early withdrawal. For the taper period (days 1 through 7 after the end of the double-blind treatment period), they received 0 mg. Subjects assigned to the ODV 100 mg dose group were titrated to their maintenance dose. On study days 1 through 7 they received ODV 50 mg/day. Beginning on study day 8, they received their assigned dose of ODV 100 mg/day and continued on this regimen until study day 56 or early withdrawal. For the taper period (days 1 through 7 after the end of the double-blind treatment period), they received ODV 50 mg/day. Subjects assigned to placebo received their maintenance dose (0 mg) from study day 1 through day 56 or early withdrawal, and also received 0 mg during the taper period.\nThe safety of the two doses was determined using the following assessments: monitoring of adverse events (AEs), withdrawal because of AEs, concomitant medications, physical examinations, standard 12-lead electrocardiograms (ECGs), vital signs (supine and standing pulse rate and blood pressure (BP); body weight), laboratory determinations (hematology, blood chemistry, and urinalysis; free thyroxine index, including total thyroxine and triiodothyronine, and the β-HCG), and the Discontinuation-Emergent Signs and Symptoms (DESS) checklist."}, "[3]": {"system": "subjects with a primary diagnosis of MDD", "experiment": "MDD Study No. 2: efficacy evaluation, randomized double-blind placebo-controlled study", "type": "in vivo, human", "method": "This example describes the results of a second multicenter, randomized, double-blind, placebo-controlled, parallel-group study that was also designed to evaluate the efficacy and safety of 50 and 100 mg/day ODV for treating MDD.\nSubjects were male or female adults that met the same criteria as the subjects in Example 1. The planned enrollment was 450 subjects. A total of 565 subjects were screened for participation; 80 were screen failures and 485 were randomly assigned to treatment: 161 were assigned to receive placebo, 166 were assigned to receive ODV 50 mg/day; and 158 were assigned to receive ODV 100 mg/day. All 485 randomized subjects were included in the safety population (completed the prestudy period and took at least 1 dose of double-blind study drug). The intent-to-treat [ITT] efficacy population included 483 subjects, and the per-protocol [PP] efficacy population included 440 subjects. Completers for exposure (353 subjects) were defined as subjects who had at least 53 days of exposure to study drug.\nThe administration protocols for 50 or 100 mg/day and placebo groups were the same as in Example 1.\nThe primary and secondary outcomes were the same as in Example 1 as were the statistical methods. P-values of less than 0.05 are shown in bold."}, "[4]": {"system": "norepinephrine and serotonin uptake", "conditions": "Klamerus et al., J. Clin. Pharmacol. 32:716-724 (1992); cited from earlier work"}, "[5]": {"conditions": "50 mg group, number of subjects"}, "[6]": {"conditions": "100 mg group, number of subjects"}},
  "data": [
    {"smiles": "CN(C)CC(c1ccc(O)cc1)C1(O)CCCCC1", "note": "(centres unmarked) [ODV, 1-[2-(dimethylamino)-1-(4-phenol)ethyl]-cyclohexanol]", "values": [
      {"measurement": "HAM-D17 total score, adjusted mean change from baseline", "setting": "[1]; 50 mg/day, FOT evaluation, ANCOVA LOCF, placebo −9.53", "value": "−11.5"},
      {"measurement": "HAM-D17 total score, adjusted mean change from baseline", "setting": "[1]; 50 mg/day, week 8, mixed-effects model, placebo −9.86", "value": "−12.40"},
      {"measurement": "HAM-D17 total score, adjusted mean change from baseline", "setting": "[1]; 100 mg/day, week 8, mixed-effects model, placebo −9.86", "value": "−11.88"},
      {"measurement": "most common (incidence≧5%) taper/poststudy-emergent AEs", "setting": "[2]; 50 mg group", "value": "diarrhea, nausea, abnormal dreams, dizziness, and hostility"},
      {"measurement": "subjects with AEs as reason for study discontinuation", "setting": "[2]; 50 mg group, 151 subjects", "value": 3, "unit": "%"},
      {"measurement": "p-value, mean DESS scores compared with placebo", "setting": "[2]; 50 mg group, first week of the taper period", "value": 0.001},
      {"measurement": "subjects with clinically important AE hypertension", "setting": "[2]; [5]", "value": 2},
      {"measurement": "subjects with clinically important AE hypotension", "setting": "[2]; [5]", "value": 2},
      {"measurement": "subjects with laboratory values considered clinically important by the medical monitor", "setting": "[2]; [5]", "value": 2},
      {"measurement": "subjects reporting serious or noteworthy AEs", "setting": "[2]; [5]", "value": 5},
      {"measurement": "subjects with AEs of clinical importance", "setting": "[2]; [5]", "value": 13},
      {"measurement": "subjects with AEs as reason for study discontinuation", "setting": "[2]; 100 mg group, 148 subjects", "value": 7, "unit": "%"},
      {"measurement": "subjects with clinically important AE hypertension", "setting": "[2]; [6]", "value": 1},
      {"measurement": "subjects with laboratory values considered clinically important by the medical monitor", "setting": "[2]; [6]", "value": 3},
      {"measurement": "subjects reporting serious or noteworthy AEs", "setting": "[2]; [6]", "value": 4},
      {"measurement": "subjects with AEs of clinical importance", "setting": "[2]; [6]", "value": 10},
      {"measurement": "subjects with clinically important vital signs results", "setting": "[2]; ODV treated subjects, both doses, 3 elevated supine BP, 1 postural hypotension", "value": "four"},
      {"measurement": "clinically important findings for ECGs or ECG-related AEs", "setting": "[2]; all subjects, 50 and 100 mg/day", "value": "None of the subjects had clinically important findings for ECGs"},
      {"measurement": "HAM-D17 total score, adjusted mean change from baseline", "setting": "[3]; 50 mg/day, FOT evaluation, ANCOVA LOCF, placebo −10.7", "value": "−13.2"},
      {"measurement": "HAM-D17 total score, adjusted mean change from baseline", "setting": "[3]; 50 mg/day, week 8, mixed effect model, placebo −11.5", "value": "−14.4"},
      {"measurement": "HAM-D17 total score, adjusted mean change from baseline", "setting": "[3]; 100 mg/day, FOT evaluation, ANCOVA LOCF, placebo −10.7", "value": "−13.7"},
      {"measurement": "HAM-D17 total score, adjusted mean change from baseline", "setting": "[3]; 100 mg/day, week 8, mixed effect model, placebo −11.5", "value": "−14.9"},
      {"measurement": "inhibition of norepinephrine and serotonin uptake", "setting": "[4]", "value": "has been shown to inhibit norepinephrine and serotonin uptake"}
    ]}
  ]
}
